The text below walks through data of US20220048915A1 (SHANGHAI PHARMACEUTICALS HOLDING CO., LTD., priority 2018, published 2022).

A short description of data set [1]: Pharmacokinetic properties in rats. It counts as in vivo, SD rats. How it is done:
Ten male SD rats, weighing 180-220 g (provided by Shanghai Xipuerbikai Laboratory Animal Co., Ltd, Certificate No.: 20130016008116). The rats were fasted for feed for 12-16 hours before the experiment but water was allowed.
Blood samples were collected from the fundus vein of rats before and at 2, 5, 15, 30, 60, 90, 120, 240, 360, 480, 600 and 1440 minutes after administration, respectively.
Blood samples were collected from the fundus vein of rats before and at 5, 15, 30, 60, 90, 120, 240, 360, 480, 600, 1440 minutes after administration respectively.
Blood samples were centrifuged at 8000 rpm for 5 minutes, and supernatant plasma was taken. To 50 μL of plasma samples was added 300 μL of acetonitrile containing internal standard (propranolol, 25 ng/mL) to precipitate the protein. After vortexing for 10 minutes and centrifuging at 6000 g and 4° C. for 10 minutes, the supernatant was taken and placed in a 96-well plate for determination of drug concentration in plasma by UPLC/MS-MS.

In a further data set the test system is TNF-α. Briefly: Lipopolysaccharide (LPS)-induced inflammation model in mice, TNF-α in serum by ELISA. It counts as in vivo, C57BL/6J mice. How it is done:
Male SPF-grade C57BL/6J mice, 6-8 weeks old, provided by Shanghai Ling Chang Biotechnology Co., Ltd. Animals were housed in clean-grade plastic cages (light and dark cycle 12/12 hours, temperature 22±2° C., humidity 50±10%, pellet feed, free drinking water).
1. Mice were weighed and administered according to an administration volume of 10 mL/kg, and oral administration by gavage was given for the first time. Each mouse was administrated at an interval of 3 minutes.
2. One hour after the first administration, LPS 5 mpk was administered intraperitoneally at an administration volume of 10 mL/kg.
3. 4 hours after the first administration, a second oral administration by gavage was given according to the administration volume of 10 mL/kg.
4. 6 hours after LPS intraperitoneal injection, mice were sacrificed, serum and cerebral cortex and hippocampus were sampled. After weighing the wet weight and they were put into liquid nitrogen for quick-freezing and storage.
(In general: ELISA stands for enzyme-linked immunosorbent assay.)

Another data set concerns the target T1, p38γ (Homo sapiens, UniProt P53778).
T1 sequence (P53778 1-367): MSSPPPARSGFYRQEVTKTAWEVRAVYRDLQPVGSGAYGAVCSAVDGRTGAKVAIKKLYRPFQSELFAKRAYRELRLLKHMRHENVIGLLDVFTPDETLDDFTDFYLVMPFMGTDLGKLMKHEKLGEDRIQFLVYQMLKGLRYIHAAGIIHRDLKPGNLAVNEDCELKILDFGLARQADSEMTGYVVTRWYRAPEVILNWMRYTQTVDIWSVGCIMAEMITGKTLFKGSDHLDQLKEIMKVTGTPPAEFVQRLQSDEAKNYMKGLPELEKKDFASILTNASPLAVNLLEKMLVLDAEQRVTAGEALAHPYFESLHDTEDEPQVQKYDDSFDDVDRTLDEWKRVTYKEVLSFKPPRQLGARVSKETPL
In words: In vitro inhibition of p38 kinase (LANCE Ultra TR-FRET). It counts as biochemical. The note with it: read-out: Kinase in vitro IC50(nM) p38γ. A general note: In TR-FRET formats the signal depends on donor and acceptor labels being close together.

In a further data set the test system is BV-2 cells. Briefly: Inhibition of inflammation in LPS-stimulated BV-2 cells (ELISA of inflammatory factors). It counts as cell-based. The note with it: Mus musculus, 100 ng/mL LPS 4 hours. An outline of the steps: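 BV-2 cells (passage 8) pre-treated 1 h with compound (4-fold dilutions from 10,000 nM, 0.1% DMSO), then stimulated with 100 ng/mL LPS plus compound for 4 h at 37 °C. Supernatant IL-10, TNFα etc. measured by ELISA (OD450); % inhibition vs high/low controls, IC50 by curve fit.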

A further data set concerns the target p38α (Homo sapiens, UniProt Q16539). Briefly: In vitro inhibition of p38 kinase (LANCE Ultra TR-FRET). It counts as biochemical.
[2] abbreviates: male, SD, plasma, rat, po 6 mg/kg.

Each structure is given as a SMILES string. “And” between values parts separate entries of the source, which are not always exact repeats. Identical values can stand only once. A value given as a limit tells only on which side of the number the result lay.

What is called clearance is the rate of elimination divided by the concentration. A higher clearance goes with efficient removal. As usually defined, the Cmax is the maximum level reached in the sampled fluid or tissue. Usually MRT stands for a mean duration of stay, worked out from the concentration-time curve. For orientation: Tmax means the time at which the peak concentration occurs. By IC50 is commonly meant the concentration that gives 50% inhibition.

Sequence of p38α (Q16539 whole entry): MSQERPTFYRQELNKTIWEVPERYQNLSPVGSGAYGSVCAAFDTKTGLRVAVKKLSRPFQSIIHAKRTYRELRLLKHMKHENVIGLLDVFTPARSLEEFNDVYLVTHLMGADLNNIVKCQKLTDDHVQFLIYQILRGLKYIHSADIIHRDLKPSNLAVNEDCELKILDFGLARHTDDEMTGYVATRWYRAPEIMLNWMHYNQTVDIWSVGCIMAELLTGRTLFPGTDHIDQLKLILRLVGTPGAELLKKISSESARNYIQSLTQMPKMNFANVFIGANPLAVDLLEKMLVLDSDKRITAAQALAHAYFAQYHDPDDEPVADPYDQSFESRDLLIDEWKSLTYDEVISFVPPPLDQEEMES

As for `O=c1ncn2nc(Oc3ccc(F)cc3F)ccc2c1-c1c(Cl)cccc1Cl` [Compound I-4, 5-(2,6-dichlorophenyl)-2-(2,4-difluorophenoxy)-6H-pyrimido[1,6-b]pyridazin-6-one], the clearance in data set [1] (male, SD, plasma, rat, iv 3 mg/kg) is 8.33 mL/min/kg. Also, in data set [1] (male, SD, plasma, rat, iv 3 mg/kg, read-out: Vss (iv)), the Vd amounted to 2.1 L/kg. Besides, in data set [1] (setting [2]), the peak level (Cmax) was 994 ng/mL, the mean residence time (MRT) is 7.5 h and the Tmax came to 4.5 h. In addition, the “Thalf (iv)” value in data set [1] (rat, iv 3 mg/kg) was 3.4 h. Further, the BA in data set [1] (rat, po 6 mg/kg vs iv 3 mg/kg) worked out at 68.9%. For the same molecule, the “AUClast (po)” value in data set [1] (rat, po 6 mg/kg, 5-1440 minutes) is 8857.1 (h)*(ng/mL). The “clearance rate as fraction of that of the positive compound” value in data set [1] (rats) is reported as 1/3. In addition, the “absorption compared with the positive compound VX-745 at the same dose” value in data set [1] (rats, 6 mg/kg) is reported as “significantly higher”. Besides, the “AUC relative to that of the positive compound” value in data set [1] (rats, 6 mg/kg, 5-1440 minutes) was 5.4 times. In the data set on TNF-α (8 mpk), the “anti-inflammatory effect compared with the VX-745_8 mpk group” value was “better anti-inflammatory effect”. Moreover, the “levels of TNF-α compared with the mouse inflammation model group (G2)” value in the data set with TNF-α (8 mpk, P<0.01) is “significantly reduced”. Besides, the TNF-α conc. in the data set with TNF-α (serum, individual animals, 8 mg/kg po bid interval 4 h, 6 hours after LPS 5 mpk ip) is 11.9 pg/mL and 127.8 pg/mL and -39.4 pg/mL and 107.7 pg/mL and 92.4 pg/mL and 17.4 pg/mL and 97.1 pg/mL and -37.7 pg/mL and 86.6 pg/mL and 58.6 pg/mL and 89.4 pg/mL and 116.9 pg/mL. Further, the 50% inhibitory concentration (IC50) on p38γ was over 3330 nM. In addition, in the data set on BV-2 cells (read-out: BV-2 Max Inh. (%)), the Emax was 100%. The 50% inhibitory concentration (IC50) in the data set on BV-2 cells (read-out: BV-2 Rf IC50) came out at 6.47 nM. In addition, the “inhibitory activity against p38α kinase compared to the positive compound” value against p38α is given as “superior inhibitory activity”. Further, on p38α (read-out: Kinase in vitro IC50(nM) p38α), the half-inhibitory concentration (IC50) came to 9.87 nM.
